Source: ChEMBL document CHEMBL3734723, “Synthesis and anticancer activity of 6-heteroarylcoumarins” (2015)

Tests used:
Format in all cases: functional
[1] = Cytotoxicity against human RPMI8226 cells assessed as cell growth at 10 uM incubated for 48 hrs by sulforhodamine B assay; conditions: RPMI-8226, 48 h, read-out: Activity
SK-MEL-5 = assay: Cytotoxicity against human SK-MEL-5 cells assessed as cell growth at 10 uM incubated for 48 hrs by sulforhodamine B assay; conditions: SK-MEL-5, 48 h, read-out: Activity
[2] = Cytotoxicity against human UACC62 cells assessed as cell growth at 10 uM incubated for 48 hrs by sulforhodamine B assay; conditions: UACC-62, 48 h, read-out: Activity
[3] = Cytotoxicity against human SF295 cells assessed as cell growth at 10 uM incubated for 48 hrs by sulforhodamine B assay; conditions: SF-295, 48 h, read-out: Activity
[4] = Cytotoxicity against human HL-60(TB) cells assessed as cell growth at 10 uM incubated for 48 hrs by sulforhodamine B assay; conditions: HL-60, 48 h, read-out: Activity
[5] = Cytotoxicity against human HOP92 cells assessed as cell growth at 10 uM incubated for 48 hrs by sulforhodamine B assay; conditions: HOP-92, 48 h, read-out: Activity
SR = assay: Cytotoxicity against human SR cells assessed as cell growth at 10 uM incubated for 48 hrs by sulforhodamine B assay; conditions: read-out: Activity
[6] = Cytotoxicity against human MOLT4 cells assessed as cell growth at 10 uM incubated for 48 hrs by sulforhodamine B assay; conditions: MOLT-4, 48 h, read-out: Activity
CCRF-CEM = assay: Cytotoxicity against human CCRF-CEM cells assessed as cell growth at 10 uM incubated for 48 hrs by sulforhodamine B assay; conditions: read-out: Activity
[7] = Cytotoxicity against human OVCAR8 cells assessed as cell growth at 10 uM incubated for 48 hrs by sulforhodamine B assay; conditions: OVCAR-8, 48 h, read-out: Activity
[8] = Cytotoxicity against human UO31 cells assessed as cell growth at 10 uM incubated for 48 hrs by sulforhodamine B assay; conditions: UO-31, 48 h, read-out: Activity
NCI-H522 = assay: Cytotoxicity against human NCI-H522 cells assessed as cell growth at 10 uM incubated for 48 hrs by sulforhodamine B assay; conditions: NCI-H522, 48 h, read-out: Activity
[9] = Cytotoxicity against human PC3 cells assessed as cell growth at 10 uM incubated for 48 hrs by sulforhodamine B assay; conditions: PC-3, 48 h, read-out: Activity
K562 = assay: Cytotoxicity against human K562 cells assessed as cell growth at 10 uM incubated for 48 hrs by sulforhodamine B assay; conditions: K562, 48 h, read-out: Activity
MDA-MB-468 = assay: Cytotoxicity against human MDA-MB-468 cells assessed as cell growth at 10 uM incubated for 48 hrs by sulforhodamine B assay; conditions: MDA-MB-468, 48 h, read-out: Activity
NCI-H460 = assay: Cytotoxicity against human NCI-H460 cells assessed as cell growth at 10 uM incubated for 48 hrs by sulforhodamine B assay; conditions: NCI-H460, 48 h, read-out: Activity
ACHN = assay: Cytotoxicity against human ACHN cells assessed as cell growth at 10 uM incubated for 48 hrs by sulforhodamine B assay; conditions: read-out: Activity
NCI-H23 = assay: Cytotoxicity against human NCI-H23 cells assessed as cell growth at 10 uM incubated for 48 hrs by sulforhodamine B assay; conditions: NCI-H23, 48 h, read-out: Activity
[10] = Cytotoxicity against human OVCAR3 cells assessed as cell growth at 10 uM incubated for 48 hrs by sulforhodamine B assay; conditions: OVCAR-3, 48 h, read-out: Activity
[11] = Cytotoxicity against human LOXIMVI cells assessed as cell growth at 10 uM incubated for 48 hrs by sulforhodamine B assay; conditions: LOX IMVI, read-out: Activity
[12] = Cytotoxicity against human HCT15 cells assessed as cell growth at 10 uM incubated for 48 hrs by sulforhodamine B assay; conditions: HCT-15, 48 h, read-out: Activity
MCF7 = assay: Cytotoxicity against human MCF7 cells assessed as cell growth at 10 uM incubated for 48 hrs by sulforhodamine B assay; conditions: MCF7, 48 h, read-out: Activity
[13] = Cytotoxicity against human OVCAR4 cells assessed as cell growth at 10 uM incubated for 48 hrs by sulforhodamine B assay; conditions: OVCAR-4, 48 h, read-out: Activity
[14] = Cytotoxicity against human […] cells assessed as cell growth at 10 uM incubated for 48 hrs by sulforhodamine B assay; conditions: read-out: Activity
786-0 = assay: Cytotoxicity against human 786-0 cells assessed as cell growth at 10 uM incubated for 48 hrs by sulforhodamine B assay; conditions: 786-0, 48 h, read-out: Activity
MDA-MB-435 = assay: Cytotoxicity against human MDA-MB-435 cells assessed as cell growth at 10 uM incubated for 48 hrs by sulforhodamine B assay; conditions: MDA-MB-435, 48 h, read-out: Activity
[15] = Cytotoxicity against human HCC2998 cells assessed as cell growth at 10 uM incubated for 48 hrs by sulforhodamine B assay; conditions: HCC 2998, 48 h, read-out: Activity
[16] = Cytotoxicity against human NCI-ADR-RES cells assessed as cell growth at 10 uM incubated for 48 hrs by sulforhodamine B assay; conditions: read-out: Activity
[17] = Cytotoxicity against human HCT116 cells assessed as cell growth at 10 uM incubated for 48 hrs by sulforhodamine B assay; conditions: HCT-116, 48 h, read-out: Activity
EKVX = assay: Cytotoxicity against human EKVX cells assessed as cell growth at 10 uM incubated for 48 hrs by sulforhodamine B assay; conditions: read-out: Activity
KM12 = assay: Cytotoxicity against human KM12 cells assessed as cell growth at 10 uM incubated for 48 hrs by sulforhodamine B assay; conditions: KM12, 48 h, read-out: Activity
A549 = assay: Cytotoxicity against human A549 cells assessed as cell growth at 10 uM incubated for 48 hrs by sulforhodamine B assay; conditions: A549, 48 h, read-out: Activity
T47D = assay: Cytotoxicity against human T47D cells assessed as cell growth at 10 uM incubated for 48 hrs by sulforhodamine B assay; conditions: read-out: Activity

Structure (SMILES): CCCc1cc(=O)oc2c(C)c(O)c(-c3ccc4c(=O)n(-c5ccccc5)nc-4[nH]3)cc12
- growth at 10 µM [1]: 65.8%
- growth at 10 µM (SK-MEL-5): 67.1%
- growth at 10 µM [2]: 60.6%
- growth at 10 µM [3]: 69.1%

Structure (SMILES): Cc1c(O)c(-c2cc[nH]n2)cc2c3c(c(=O)oc12)CCC3
- growth at 10 µM [4]: -20.4%
- growth at 10 µM [5]: 65.7%
- growth at 10 µM (SR): 16.5%
- growth at 10 µM [6]: -36%
- growth at 10 µM (CCRF-CEM): -69.3%

Structure (SMILES): CCCCc1cc(=O)oc2c(C)c(O)c(-c3ccnc(NC#N)n3)cc12
- growth at 10 µM (CCRF-CEM): -58.3%

Structure (SMILES): Cc1cc(=O)oc2c(C)c(O)c(-c3cc[nH]n3)cc12
- growth at 10 µM [4]: -10.9%
- growth at 10 µM [1]: 64.3%
- growth at 10 µM (CCRF-CEM): -68.5%

Structure (SMILES): Cc1c(O)c(-c2ccnc(S)n2)cc2c3c(c(=O)oc12)CCCC3
- growth at 10 µM [7]: 64.5%
- growth at 10 µM [8]: 60.8%
- growth at 10 µM (NCI-H522): 68.8%

Structure (SMILES): CCCCc1cc(=O)oc2c(C)c(O)c(-c3ccnc4nnnn34)cc12
- growth at 10 µM [8]: 89.4%

Structure (SMILES): Cc1cc(=O)oc2c(C)c(O)c(-c3cc4ccccc4[nH]3)cc12
- growth at 10 µM [1]: 43.8%
- growth at 10 µM (SK-MEL-5): 48.5%
- growth at 10 µM (SR): 65.2%
- growth at 10 µM [9]: 66.5%
- growth at 10 µM (K562): 59.3%
- growth at 10 µM [2]: 48.8%
- growth at 10 µM [8]: 51.8%
- growth at 10 µM (MDA-MB-468): 64.3%
- growth at 10 µM (NCI-H522): 58.2%

Structure (SMILES): Cc1c(O)c(-c2ccnc(N)n2)cc2c3c(c(=O)oc12)CCC3
- growth at 10 µM [4]: -34.4%
- growth at 10 µM [1]: 55.6%
- growth at 10 µM [5]: -5.18%
- growth at 10 µM (SR): 4.79%
- growth at 10 µM (CCRF-CEM): -73.3%

Structure (SMILES): Cc1c(O)c(-c2cc3ccccc3[nH]2)cc2c3c(c(=O)oc12)CCCC3
- growth at 10 µM (NCI-H460): 47.8%
- growth at 10 µM [1]: 38.7%
- growth at 10 µM (ACHN): 66.9%
- growth at 10 µM (SK-MEL-5): 52.2%
- growth at 10 µM [5]: 36.7%
- growth at 10 µM (NCI-H23): 31.5%
- growth at 10 µM [10]: 64.6%
- growth at 10 µM [11]: 68.2%
- growth at 10 µM [12]: 67.3%
- growth at 10 µM (MCF7): 67.3%
- growth at 10 µM (SR): 60.2%
- growth at 10 µM [13]: 61.6%
- growth at 10 µM [14]: 68.8%
- growth at 10 µM [9]: 52.8%
- growth at 10 µM (K562): 44.3%
- growth at 10 µM [6]: 62.2%
- growth at 10 µM (786-0): 69.9%
- growth at 10 µM (MDA-MB-435): 65.3%
- growth at 10 µM [15]: 53.7%
- growth at 10 µM [16]: 49.2%
- growth at 10 µM [17]: 51.7%
- growth at 10 µM [2]: 48.2%
- growth at 10 µM (EKVX): 60.7%
- growth at 10 µM (KM12): 64.8%
- growth at 10 µM [3]: 65.7%
- growth at 10 µM [8]: 44%
- growth at 10 µM (A549): 58.5%
- growth at 10 µM (MDA-MB-468): 41.6%
- growth at 10 µM (NCI-H522): 39.6%

Structure (SMILES): CCCc1cc(=O)oc2c(C)c(O)c(-c3ccc(C#N)c(=O)[nH]3)cc12
- growth at 10 µM [14]: 90%

Structure (SMILES): Cc1cc(=O)oc2c(C)c(O)c(-c3ccnc4nc5ccccc5n34)cc12
- growth at 10 µM (CCRF-CEM): -81.9%

Structure (SMILES): Cc1c(O)c(-c2cc3ccccc3[nH]2)cc2c3c(c(=O)oc12)CCC3
- growth at 10 µM [1]: 51.8%
- growth at 10 µM [9]: 67%
- growth at 10 µM (T47D): 69.8%
- growth at 10 µM [2]: 59.1%
- growth at 10 µM (NCI-H522): 61.6%
